# Data from paper PMC5814047, “Peptidic inhibitors of insulin-degrading enzyme with potential for dermatological applications discovered via phage display” (PLoS ONE, 2018).
# Values joined by “and” are separate entries in the source; they are usually repeats but may differ in a detail not shown here. Equal entries are not always repeated. Where two headings read alike, the source gives them in different places. Bridge positions count the residues as written; N and C are the ends. Ends that are not written are not given here. Peptide text beside a SMILES is read from it.
# Experiments:
# [1] = biological target: T1, IDE (Homo sapiens, UniProt P14735); assay: biochemical; conditions: for IC50 <500 uM?: initial test at 500 uM
# T1 construct: made in house; host or cells: bacteria
# T1 sequence (P14735 1-1019): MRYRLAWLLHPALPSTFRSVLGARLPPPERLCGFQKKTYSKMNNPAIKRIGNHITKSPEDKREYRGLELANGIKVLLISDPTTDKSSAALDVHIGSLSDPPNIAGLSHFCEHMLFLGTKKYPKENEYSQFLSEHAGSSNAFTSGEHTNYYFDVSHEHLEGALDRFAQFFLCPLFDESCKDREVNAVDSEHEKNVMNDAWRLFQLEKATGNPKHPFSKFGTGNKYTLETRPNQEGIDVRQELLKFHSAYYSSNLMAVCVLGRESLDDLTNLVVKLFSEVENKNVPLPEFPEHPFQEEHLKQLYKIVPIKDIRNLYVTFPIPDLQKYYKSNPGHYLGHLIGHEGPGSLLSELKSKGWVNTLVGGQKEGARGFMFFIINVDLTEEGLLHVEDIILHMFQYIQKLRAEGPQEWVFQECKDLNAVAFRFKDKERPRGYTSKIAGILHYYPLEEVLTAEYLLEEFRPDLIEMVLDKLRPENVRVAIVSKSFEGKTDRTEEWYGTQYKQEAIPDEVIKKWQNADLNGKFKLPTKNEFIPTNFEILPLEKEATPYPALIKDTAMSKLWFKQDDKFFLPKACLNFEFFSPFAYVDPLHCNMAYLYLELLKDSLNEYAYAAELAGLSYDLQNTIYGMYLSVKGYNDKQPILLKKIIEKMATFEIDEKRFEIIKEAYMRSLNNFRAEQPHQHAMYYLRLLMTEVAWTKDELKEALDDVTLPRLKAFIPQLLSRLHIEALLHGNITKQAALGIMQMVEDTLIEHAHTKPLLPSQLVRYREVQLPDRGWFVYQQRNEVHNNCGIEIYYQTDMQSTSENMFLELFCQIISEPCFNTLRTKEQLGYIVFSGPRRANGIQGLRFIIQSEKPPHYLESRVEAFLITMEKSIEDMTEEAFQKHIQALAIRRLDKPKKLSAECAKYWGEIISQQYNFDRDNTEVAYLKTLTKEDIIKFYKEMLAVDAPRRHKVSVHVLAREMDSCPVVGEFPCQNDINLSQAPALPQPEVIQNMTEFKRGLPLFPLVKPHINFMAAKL
# How it was run: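 Recombinant human IDE (1 nM, bacterially expressed) degraded FRET1 substrate (5 μM), fluoresceinated biotinylated amyloid β (500 nM) or human insulin (50 nM) in PBS with 0.05% BSA. Peptides tested included N-acetylated and C-amidated variants.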
# [2] = biological target: T1, IDE; assay: biochemical; conditions: for IC50 <10 uM?: initial test at 10 uM using insulin (100 nM); for remaining activity at 0.016 µM: Cmpd 0.016 uM; for remaining activity at 0.08 µM: Cmpd 0.08 uM; for remaining activity at 0.4 µM: Cmpd 0.4 uM; for remaining activity at 2 µM: Cmpd 2 uM; for remaining activity at 10 µM: Cmpd 10 uM
# How it was run: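 Bacterially expressed recombinant human IDE (1 nM) in PBS with 0.05% BSA. Substrates: FRET1 (5 μM; fluorescence, ex 340/em 420 nm), fluoresceinated biotinylated amyloid β-protein (500 nM; fluorescence polarization, ex 488/em 525 nm), or recombinant human insulin (50 nM; ELISA).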
# [3] = dose-response, individual runs, read-out: Percent Activity (normalized source data)
# [4] = dose-response, 125 uM, individual runs, read-out: Percent Activity (normalized source data)
# [5] = initial test, percent of initial velocity relative to DMSO-only controls, N 4, read-out: Percent activity at 500 uM, Mean
# [6] = judged as IC50 <100 uM?, N 4, read-out: Percent activity at 500 uM, Mean
# [7] = insulin ELISA, Runs 1-3, read-out: Percent Activity (normalized source data)
# [8] = Cheng-Prusoff, KM 10 uM, substrate concentration 5 uM, read-out: Ki values, Mean
# [9] = dose-response, FRET1, individual runs, read-out: IC50s, Run 1-6
# [10] = dose-response, FRET1, read-out: IC50s, Mean
# [11] = initial test, percent of initial velocity relative to DMSO-only controls, individual replicates, read-out: Percent activity at 500 uM, Replicate 1-4
# [12] = judged as IC50 <100 uM?, individual replicates, read-out: Percent activity at 500 uM, Replicate 1-4
# [13] = substrate FRET1 5 μM, Ki from IC50 with the Cheng-Prusoff equation, read-out: Ki FRET1
# [14] = substrate recombinant human insulin 50 nM, Ki from IC50 with the Cheng-Prusoff equation
# [15] = dose-response, 500 uM, individual runs, read-out: Percent Activity (normalized source data)
# [16] = insulin ELISA assay, dose-response, Replicates 1-3, read-out: IC50s, individual replicates
# [17] = insulin ELISA assay, dose-response, N=3, read-out: IC50s, Mean
compound,measurement,setting,value
CC(C)C[C@H](NC(=O)[C@H](CO)NC(=O)[C@@H](N)CCC(N)=O)C(=O)N1CCC[C@H]1C(=O)N[C@@H](Cc1c[nH]c2ccccc12)C(=O)N[C@H]1CSSC[C@@H](C(=O)N[C@H](C(=O)N[C@H](C(N)=O)[C@@H](C)O)C(C)C)NC(=O)[C@H](Cc2c[nH]cn2)NC(=O)[C@@H]2CCCN2C(=O)[C@H](Cc2ccc(O)cc2)NC1=O [P12-3A] (H-QSLPWCYPHCVT-NH2; disulfide 6-10 (inferred)),remaining activity at 0.0005 µM,"[1]; FRET1, P12-3A 0.0005 uM, Replicates 4-6, read-out: Percent Activity (normalized source data)",109%
same,remaining activity at 0.0016 µM,"[1]; FRET1, P12-3A 0.0016 uM, Replicates 4-6, read-out: Percent Activity (normalized source data)",115%
same,remaining activity at 0.005 µM,"[1]; FRET1, P12-3A 0.005 uM, Replicates 4-6, read-out: Percent Activity (normalized source data)",119%
same,remaining activity at 0.05 µM,"[1]; FRET1, P12-3A 0.050 uM, Replicates 4-6, read-out: Percent Activity (normalized source data)",134%
same,remaining activity at 0.12 µM,"[1]; FRET1, P12-3A 0.12 uM, Replicates 1-3, read-out: Percent Activity (normalized source data)",81.6%
same,remaining activity at 0.24 µM,"[1]; FRET1, P12-3A 0.24 uM, Replicates 1-3, read-out: Percent Activity (normalized source data)",82.7%
same,remaining activity at 0.49 µM,"[1]; FRET1, P12-3A 0.49 uM, Replicates 1-3, read-out: Percent Activity (normalized source data)",73.4%
same,remaining activity at 0.98 µM,"[1]; FRET1, P12-3A 0.98 uM, Replicates 1-3, read-out: Percent Activity (normalized source data)",62.8%
same,remaining activity at 3.91 µM,"[1]; FRET1, P12-3A 3.91 uM, Replicates 1-3, read-out: Percent Activity (normalized source data)",45.2%
same,remaining activity at 7.81 µM,"[1]; FRET1, P12-3A 7.81 uM, Replicates 1-3, read-out: Percent Activity (normalized source data)",33%
same,remaining activity at 15.6 µM,"[1]; FRET1, P12-3A 15.6 uM, Replicates 1-3, read-out: Percent Activity (normalized source data)",38.9%
same,remaining activity at 16 µM,"[1]; FRET1, P12-3A 16 uM, Replicates 4-6, read-out: Percent Activity (normalized source data)",45.2%
same,remaining activity at 31.2 µM,"[1]; FRET1, P12-3A 31.2 uM, Replicates 1-3, read-out: Percent Activity (normalized source data)",30.6%
same,remaining activity at 50 µM,"[1]; FRET1, P12-3A 50 uM, Replicates 4-6, read-out: Percent Activity (normalized source data)",31.6%
same,remaining activity at 62.5 µM,"[1]; FRET1, P12-3A 62.5 uM, Replicates 1-3, read-out: Percent Activity (normalized source data)",23.7%
same,remaining activity at 125 µM,"[1]; FRET1, P12-3A 125 uM, Replicates 1-3, read-out: Percent Activity (normalized source data)",20.1%
same,remaining activity at 158 µM,"[1]; FRET1, P12-3A 158 uM, Replicates 4-6, read-out: Percent Activity (normalized source data)",23.8%
same,remaining activity at 250 µM,"[1]; FRET1, P12-3A 250 uM, Replicates 1-3, read-out: Percent Activity (normalized source data)",10.4%
same,remaining activity at 0.12207 µM,[1]; [3],87.1%
same,remaining activity at 0.488281 µM,[1]; [3],82.8%
same,remaining activity at 1.95312 µM,[1]; [3],78.7%
same,remaining activity at 7.8125 µM,[1]; [3],74%
same,remaining activity at 31.25 µM,[1]; [3],40.2%
same,remaining activity at 125 µM,[1]; [4],9.83%
same,IC50 <500 uM?,[1],YES
same,remaining activity at 500 µM,[1]; [5],3.6%
same,remaining activity at 500 µM,[1]; [6],17.1%
same,Hill slope,"[2]; dose-response of P12-3A against insulin degradation by IDE, Fig 3B",0.91 ± 0.15
same,IC50 <10 uM?,[2],YES
same,remaining activity at 0.016 µM,[2]; [7],90.2%
same,remaining activity at 0.08 µM,[2]; [7],84.4%
same,remaining activity at 0.4 µM,[2]; [7],76.5%
same,remaining activity at 2 µM,[2]; [7],62.5%
same,remaining activity at 10 µM,[2]; [7],47.7%
same,remaining activity at 50 µM,"[2]; insulin ELISA, Cmpd 50 uM, Runs 1-3, read-out: Percent Activity (normalized source data)",28.6%
same,remaining activity at 0.0316228 µM,"[2]; resynthesized P12-3A 0.0316228 uM, individual replicates, read-out: Percent Activity (normalized source data)",98.5%
CC(C)C[C@H](NC(=O)[C@H](CO)NC(=O)[C@@H](N)CCC(N)=O)C(=O)N1CCC[C@H]1C(=O)N[C@@H](Cc1c[nH]c2ccccc12)C(=O)N[C@H]1CSSC[C@@H](C(=O)N[C@H](C(=O)N[C@H](C(=O)O)[C@@H](C)O)C(C)C)NC(=O)[C@H](Cc2c[nH]cn2)NC(=O)[C@@H]2CCCN2C(=O)[C@H](Cc2ccc(O)cc2)NC1=O [P12-3] (H-QSLPWCYPHCVT-OH; disulfide 6-10 (inferred)),remaining activity at 0.12207 µM,[1]; [3],91.1%
same,remaining activity at 0.488281 µM,[1]; [3],84.5%
same,remaining activity at 1.95312 µM,[1]; [3],84.4%
same,remaining activity at 7.8125 µM,[1]; [3],65.6%
same,remaining activity at 31.25 µM,[1]; [3],34.6%
same,remaining activity at 125 µM,[1]; [4],11%
same,IC50 <500 uM?,[1],YES
same,remaining activity at 500 µM,[1]; [5],2%
same,remaining activity at 500 µM,[1]; [6],13.9%
same,IC50 <10 uM?,[2],YES
same,remaining activity at 0.016 µM,[2]; [7],66.3%
same,remaining activity at 0.08 µM,[2]; [7],72.2%
same,remaining activity at 0.4 µM,[2]; [7],62.9%
same,remaining activity at 2 µM,[2]; [7],64.4%
same,remaining activity at 10 µM,[2]; [7],37.6%
QSLPWCYP-NH2 [P12-3B],Ki,[1]; [8],39.4 µM
same,IC50,[1]; [9],25.6 µM and 32.5 µM
same,IC50,[1]; [10],59.2 µM
same,IC50 <500 uM?,[1],YES
same,remaining activity at 500 µM,[1]; [11],13.7%
same,remaining activity at 500 µM,[1]; [12],27.1%
same,Ki,[1]; [13],39 ± 20 µM
same,IC50,"[2]; from initial test at 10 uM using insulin (100 nM), read-out: IC50 (summary of results, listed in Table 1)",> 10 µM
same,Ki,[2]; [14],> 10 µM
VHWDFRQWWQPS [P12-1],Ki,[1]; [8],7.71 µM
same,remaining activity at 500 µM,[1]; [15],0.0455%
same,IC50,[1]; [9],11.6 µM and 9.84 µM and 13.2 µM
same,IC50,[1]; [10],11.6 µM
same,IC50 <500 uM?,[1],YES
same,remaining activity at 500 µM,[1]; [12],17.6%
same,Ki,[1]; [13],7.7 ± 0.7 µM
same,Ki,"[2]; as restated in the Discussion, read-out: Ki (insulin)",0.8 µM
same,IC50 <10 uM?,[2],YES
same,IC50,[2]; [16],1.58 µM and 1.47 µM and 1.72 µM
same,IC50,[2]; [17],1.59 µM
same,Ki,[2]; [14],0.8 ± 0.04 µM
VHWDFRQWWQPS-NH2 [P12-1A],Ki,[1]; [8],5.3 µM
same,remaining activity at 0.488281 µM,[1]; [3],88.4%
same,remaining activity at 500 µM,[1]; [15],1.11%
same,IC50,[1]; [10],7.95 µM
same,IC50 <500 uM?,[1],YES
same,Ki,[1]; [13],5 ± 0.3 µM
same,IC50 <10 uM?,[2],YES
same,IC50,[2]; [16],3.22 µM and 1.93 µM and 2.38 µM
same,IC50,[2]; [17],2.51 µM
same,Ki,[2]; [14],1.3 ± 0.2 µM
WSPISGKFFQRF [P12-4],Ki,[1]; [8],3.93 µM
same,remaining activity at 31.25 µM,[1]; [3],46.9%
same,IC50,[1]; [10],5.89 µM
same,IC50 <500 uM?,[1],YES
same,remaining activity at 500 µM,[1]; [11],8.6%
same,remaining activity at 500 µM,[1]; [12],15.5%
same,Ki,[1]; [13],3.9 ± 0.5 µM
same,IC50 <10 uM?,[2],YES
same,IC50,[2]; [16],1.9 µM and 3.16 µM and 3.78 µM
same,IC50,[2]; [17],2.95 µM
same,Ki,[2]; [14],1.5 ± 0.3 µM
